Measured values from patent US10294207B2, “Pyrazole derivatives as TNIK, IKKϵ and TBK1 inhibitor and pharmaceutical composition comprising same” (GREEN CROSS CORPORATION, priority 2015, dated 2019).

Columns and labels:
Type in all cases: biochemical
Conditions in all cases: luminometer
TNIK = target: T1, TNIK (Homo sapiens, UniProt Q9UKE5); test: TNIK inhibition, ADP-Glo Kinase Assay
T1 construct: purchased Promega V4158
Description: Inhibition activities on TNIK, IKKε and TBK1 were evaluated using the compounds of Examples 1 to 254.
The inhibition activities on TNIK, IKKε and TBK1 were measured by a luminometer, TNIK/IKKε/TBK1 Kinase Enzyme System (Promega, Ca# V4158; Invitrogen, PR8031B, Promega, Ca# V3991) and ADP-Glo Kinase Assay using ADP-Glo™ Kinase Analysis Kit (Promega, Ca# V9101) and a kinase reaction buffer [40 mM Tris(pH 7.5), 20 mM MgCl2, 0.1 mg/mL BSA] in accordance with the manufacturer's protocol.

TBK1 = target: T2, TBK1 (Homo sapiens, UniProt Q9UHD2); test: TBK1 inhibition, ADP-Glo Kinase Assay
T2 construct: purchased Promega V3991
T2 sequence (Q9UHD2 1-729): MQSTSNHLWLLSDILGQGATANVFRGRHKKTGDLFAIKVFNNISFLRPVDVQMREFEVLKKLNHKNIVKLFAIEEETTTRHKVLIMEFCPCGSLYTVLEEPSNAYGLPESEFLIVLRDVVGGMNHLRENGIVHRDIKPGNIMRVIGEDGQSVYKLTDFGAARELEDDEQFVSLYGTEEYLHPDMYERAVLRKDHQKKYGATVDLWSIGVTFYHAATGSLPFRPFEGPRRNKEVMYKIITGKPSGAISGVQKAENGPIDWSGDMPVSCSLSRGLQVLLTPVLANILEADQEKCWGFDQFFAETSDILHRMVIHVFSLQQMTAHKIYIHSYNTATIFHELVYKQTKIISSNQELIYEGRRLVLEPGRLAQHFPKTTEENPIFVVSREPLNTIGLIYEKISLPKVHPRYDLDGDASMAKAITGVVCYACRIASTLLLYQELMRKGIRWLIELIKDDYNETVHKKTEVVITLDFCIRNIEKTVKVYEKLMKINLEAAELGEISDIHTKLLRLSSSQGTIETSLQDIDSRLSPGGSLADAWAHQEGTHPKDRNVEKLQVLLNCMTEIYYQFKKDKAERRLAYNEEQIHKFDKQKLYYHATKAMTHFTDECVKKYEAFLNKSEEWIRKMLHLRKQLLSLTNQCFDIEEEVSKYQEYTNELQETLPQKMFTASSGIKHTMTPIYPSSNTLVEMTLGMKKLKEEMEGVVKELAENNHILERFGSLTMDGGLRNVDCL
Method in brief: (§1)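 Each recombinant kinase enzyme system was run per the manufacturer's protocol in 40 mM Tris pH 7.5, 20 mM MgCl2 and 0.1 mg/mL BSA. Kinase activity was detected as ADP formation by ADP-Glo luminescence.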

IKKε = target: T3, IKKε (Homo sapiens, UniProt Q14164); test: IKKε inhibition, ADP-Glo Kinase Assay
T3 construct: purchased Invitrogen PR8031B
T3 sequence (Q14164 1-716): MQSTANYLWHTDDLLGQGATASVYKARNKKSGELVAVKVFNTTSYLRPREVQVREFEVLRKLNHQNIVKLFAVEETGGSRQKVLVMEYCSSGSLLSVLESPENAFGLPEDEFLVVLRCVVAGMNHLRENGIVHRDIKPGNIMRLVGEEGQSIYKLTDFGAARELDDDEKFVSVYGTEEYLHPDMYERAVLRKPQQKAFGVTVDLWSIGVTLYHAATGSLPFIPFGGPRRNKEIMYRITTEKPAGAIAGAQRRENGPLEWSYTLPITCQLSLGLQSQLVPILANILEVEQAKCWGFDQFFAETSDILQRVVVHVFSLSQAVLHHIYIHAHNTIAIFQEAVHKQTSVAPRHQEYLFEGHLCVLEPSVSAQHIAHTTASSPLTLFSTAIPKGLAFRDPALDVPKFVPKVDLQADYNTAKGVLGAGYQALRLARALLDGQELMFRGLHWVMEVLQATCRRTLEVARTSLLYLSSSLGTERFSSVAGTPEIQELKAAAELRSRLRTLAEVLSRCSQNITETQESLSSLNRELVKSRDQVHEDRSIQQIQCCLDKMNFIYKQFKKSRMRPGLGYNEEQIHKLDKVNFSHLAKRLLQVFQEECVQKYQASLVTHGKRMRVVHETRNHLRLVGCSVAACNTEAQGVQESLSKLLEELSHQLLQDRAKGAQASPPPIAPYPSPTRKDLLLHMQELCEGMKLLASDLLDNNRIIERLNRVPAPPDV
Method in brief: as §1

T1 sequence (Q9UKE5 1-367 limits assumed): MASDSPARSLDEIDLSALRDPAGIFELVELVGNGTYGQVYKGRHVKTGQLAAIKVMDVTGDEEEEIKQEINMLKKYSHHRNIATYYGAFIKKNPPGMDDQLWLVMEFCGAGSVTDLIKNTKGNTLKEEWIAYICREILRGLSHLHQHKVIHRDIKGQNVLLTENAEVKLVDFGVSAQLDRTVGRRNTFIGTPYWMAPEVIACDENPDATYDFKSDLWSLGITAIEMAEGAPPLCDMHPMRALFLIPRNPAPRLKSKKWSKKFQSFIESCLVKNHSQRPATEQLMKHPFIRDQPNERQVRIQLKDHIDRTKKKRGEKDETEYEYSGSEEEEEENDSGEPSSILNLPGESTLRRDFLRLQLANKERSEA

IC50 (TNIK) | IC50 (TBK1) | IC50 (IKKε) | SMILES
0.085 µM | 0.12 µM | 0.32 µM | Cc1cnc(-c2cc3[nH]nc(NC(=O)c4ccc(NCCN5CCCCC5)cc4)c3s2)o1 [Example 224, N-(5-(5-methyloxazol-2-yl)-1H-thieno[3,2-c]pyrazol-3-yl)-4-((2-(piperidin-1-yl)ethyl)amino)benzamide]
0.049 µM | 0.13 µM | 0.35 µM | Cc1cnc(-c2cc3[nH]nc(NC(=O)c4ccc(N5CCN(C)CC5)cc4)c3s2)o1 [Example 225, N-(5-(5-methyloxazol-2-yl)-1H-thieno[3,2-c]pyrazol-3-yl)-4-(4-methylpiperazin-1-yl)benzamide]
0.54 µM | > 10 µM |  | COC(=O)c1cc2[nH]nc(-c3ccc(OC)cc3)c2s1 [Example 231, methyl 3-(4-methoxyphenyl)-1H-thieno[3,2-c]pyrazole-5-carboxylate]
1.95 µM | > 10 µM |  | CCNC(=O)c1cc2[nH]nc(-c3ccc(OC)cc3)c2s1 [Example 232, N-ethyl-3-(4-methoxyphenyl)-1H-thieno[3,2-c]pyrazole-5-carboxamide]
2.86 µM | > 10 µM |  | COc1ccc(-c2n[nH]c3cc(C(=O)NC(C)C)sc23)cc1 [Example 233, N-isopropyl-3-(4-methoxyphenyl)-1H-thieno[3,2-c]pyrazole-5-carboxamide]
0.34 µM | > 10 µM |  | COc1ccc(-c2n[nH]c3cc(-c4ncc(C)o4)sc23)cc1 [Example 235, 2-(3-(4-methoxyphenyl)-1H-thieno[3,2-c]pyrazol-5-yl)-5-methyloxazole]
1.27 µM | > 10 µM |  | COC(=O)c1cc2[nH]nc(-c3ccccc3)c2s1 [Example 236, methyl 3-phenyl-1H-thieno[3,2-c]pyrazole-5-carboxylate]
0.86 µM | > 10 µM |  | COC(=O)c1cc2[nH]nc(-c3ccc(F)cc3)c2s1 [Example 239, methyl 3-(4-fluorophenyl)-1H-thieno[3,2-c]pyrazole-5-carboxylate]
2.85 µM | > 10 µM |  | CCNC(=O)c1cc2[nH]nc(-c3ccc(F)cc3)c2s1 [Example 240, N-ethyl-3-(4-fluorophenyl)-1H-thieno[3,2-c]pyrazole-5-carboxamide]
1.09 µM | > 10 µM |  | CCNC(=O)c1cc2[nH]nc(-c3ccc(N4CCOCC4)cc3)c2s1 [Example 241, N-ethyl-3-(4-morpholinophenyl)-1H-thieno[3,2-c]pyrazole-5-carboxamide]
> 20 µM | > 10 µM |  | O=C(NCCN1CCOCC1)c1cc2[nH]nc(-c3ccc(F)cc3)c2s1 [Example 242, 3-(4-fluorophenyl)-N-(2-morpholinoethyl)-1H-thieno[3,2-c]pyrazole-5-carboxamide]
0.15 µM | > 10 µM |  | Cc1cnc(-c2cc3[nH]nc(-c4ccc(N5CCOCC5)cc4)c3s2)o1 [Example 243, 4-(4-(5-(5-methyloxazol-2-yl)-1H-thieno[3,2-c]pyrazol-3-yl)phenyl)morpholine]
0.25 µM | 1.4 µM |  | Cc1cnc(-c2cc3[nH]nc(NC(=O)c4ccc(N(C)C)cc4)c3s2)s1 [Example 251, 4-(dimethylamino)-N-(5-(5-methylthiazol-2-yl)-1H-thieno[3,2-c]pyrazol-3-yl)benzamide]
0.41 µM | 1.3 µM |  | CCc1cnc(-c2cc3[nH]nc(NC(=O)c4ccc(N5CCOCC5)cc4)c3s2)s1 [Example 252, N-(5-(5-ethylthiazol-2-yl)-1H-thieno[3,2-c]pyrazol-3-yl)-4-morpholinobenzamide]
0.28 µM | 0.62 µM |  | Cc1cnc(-c2cc3[nH]nc(NC(=O)c4ccc(NCCN5CCCCC5)cc4)c3s2)s1 [Example 253, N-(5-(5-methylthiazol-2-yl)-1H-thieno[3,2-c]pyrazol-3-yl)-4-((2-(piperidin-1-yl)ethyl)amino)benzamide]
0.3 µM | > 10 µM |  | COC(=O)c1cc2[nH]nc(-c3ccc(N4CCOCC4)cc3)c2s1 [Example 254, methyl 3-(4-morpholinophenyl)-1H-thieno[3,2-c]pyrazole-5-carboxylate]
